Reference: patent US20080242590A1, “New Method 706” (ASTRAZENECA AB, priority 2007, published 2008)

Key:
Assay type in all cases: biochemical
[1] = tested on: amyloid β peptide 1-40 (Aβ40); experiment: Degradation of Aβ40 in human plasma (Example 18); conditions: 10 μM phosphoramidon
Protocol: Blood from eight individuals (5 females and 3 males) were collected into pre-chilled heparin-plasma tubes at the healthcare centre (AstraZeneca) at two different time points. Plasma was prepared by centrifugation for 20 min at 4° C. at 2500×g within 30 minutes of sampling. Plasma samples were transferred to pre-chilled polypropylene tubes and immediately frozen and stored at −70° C. prior to use. His-Fc-Nep (6 μg/ml) or 5 μg/ml recombinant human Neprilysin (R&D systems) with corresponding vehicles (50 mM Tris-HCl, 150 mM NaCl pH 7.5 or 25 mM Tris-HCl, 0.1 M NaCl pH 8.0) in presence or absence of 10 μM phosphoramidon was incubated with a pool of plasma at 37° C. for 0 and 4 h. A final concentration of 4.7 mM EDTA was added into the tubes before the amount of Aβ40 was analysed using a commercial ELISA kit obtained from Biosource. His-Fc-Nep (6 μg/ml) and commercial human recombinant neprilysin (5 μg/ml) degraded Aβ40 with 33% and 70%, respectively, compared to vehicle after 4 hours incubation at 37° C. The Aβ40 levels were unaffected after addition of 10 μM phosphoramidon (FIG. 4).

amyloid β 1-40 peptide = experiment: Degradation of amyloid β 1-40 peptide by Fc-Neprilysin and Neprilysin in buffer; conditions: 10 μM Phosphoramidone
Protocol: The assay is measuring the remaining amyloid β 1-40 peptide (Bachem) concentration following its incubation in the presence of Neprilysin (R&D Systems) or Fc-Neprilysin with or without Neprilysin inhibitor. 100 μl of reaction mixture containing amyloid β 1-40 peptide (final concentrations, 300, 30 or 3 nM) and/or Neprilysin (2.4 μg/ml), and/or Fc-Neprilysin construct (2.4 μg/ml), and/or Phosphoramidone (10 μM) was incubated in a round bottom 96-well polypropylene plate at 37° C. for 2.5 hours. Following incubation, 10 μl of reaction mixture was transferred into Thermo-Fast© 96-well PCR plate (Abgene, UK) containing 10 μl of Standard Diluent (Gyros AB). Amyloid β 1-40 concentration was determined using Gyrolab Workstation LIF system. Biotinylated anti-amyloid β antibodies (6E10; final concentration 50 μg/ml; Signet) were used as capturing antibodies and polyclonal anti-human amyloid β antibodies (44-348; Biosource) labeled with Alexa Fluor 647 dye (Molecular probes) were used as detection antibodies. […] Amyloid β 1-40 peptide degradation by Neprilysin was calculated as a percentage of Amyloid β 1-40 peptide left after incubation in the presence of Neprilysin compared to the amyloid β 1-40 peptide concentration in the absence of Neprilysin.

[2] = tested on: amyloid β peptide 1-42 (Aβ42); experiment: Ex-vivo degradation of Aβ42 in guinea pig plasma; conditions: 10 μM, combined with 208 μg/ml His-Fc-Nep
Protocol: (§1) Degradation of amyloid β peptide 1-40 (Aβ40) and amyloid β peptide 1-42 (Aβ42) by neprilysin was investigated using heparinized plasma from male Dunkin Hartley guinea pigs, weighing 250-300 g (HBLidkoping ka). Blood was withdrawn from anaesthetized guinea pigs by heart puncture. The blood were collected into prechilled heparin-plasma tubes and centrifuged for 10 min at 4° C. at 3000×g within 20 minutes of sampling. Plasma samples were transferred to pre-chilled polypropylene tubes and immediately frozen on dry ice and stored at −70° C. prior to use. The experiments were performed on a pool of plasma from seven guinea pigs. His-Fc-Nep (6 μg/ml or 208 μg/ml) or 5 μg/ml recombinant human Neprilysin (R&D systems) with corresponding vehicles (50 mM Tris-HCl, 150 mM NaCl pH 7.5 or 25 mM Tris-HCl, 0.1 M NaCl pH 8.0) were incubated with a pool of plasma in presence or absence of 10 μM phosphoramidon (BIOMOL) at 37° C. for 0 and 4 h. A final concentration of 4.7 mM EDTA was added into the tubes before the amount of Aβ40 and Aβ42 was analysed using a commercial ELISA kit obtained from Biosource (Aβ1-40) or Innogenetics (Aβ1-42).

[3] = tested on: amyloid β peptide 1-40 (Aβ40); experiment: Ex-vivo degradation of Aβ40 in guinea pig plasma; conditions: 10 μM phosphoramidon
Protocol: as §1

Aβ40 levels after addition of inhibitor to the enzyme incubation [1]: unaffected
Aβ40 levels after addition of inhibitor to the enzyme incubation [3]: unaffected
SMILES: CC(C)C[C@H](NP(=O)(O)O[C@@H]1O[C@@H](C)[C@H](O)[C@@H](O)[C@H]1O)C(=O)N[C@@H](Cc1c[nH]c2ccccc12)C(=O)O [Phosphoramidone, reference compound]
Specific Neprilysin activity in the presence of inhibitor (amyloid β 1-40 peptide): almost completely abolished
Inhibition of the Aβ42 reduction by phosphoramidon [2]: not inhibited
